Measured values from PMC8149832, “A comparative study of synthetic winged peptides for absolute protein quantification” (Scientific Reports, 2021).
Ends that are not written are not given here.

What follows are substances tested against T1, Trypsin (Sus scrofa, UniProt P00761) (assay: Trypsin digestion efficiency / kinetics of signature peptide formation). Settings: trypsin 1:20 w/w, 37 °C, AmBic/SDC buffer with 5% ACN reconstitution; 0.5-24 h; SRM peak area; Figs. 4, S3, S4.
T1 construct: purchased Promega V5280
T1 sequence (P00761 9-231): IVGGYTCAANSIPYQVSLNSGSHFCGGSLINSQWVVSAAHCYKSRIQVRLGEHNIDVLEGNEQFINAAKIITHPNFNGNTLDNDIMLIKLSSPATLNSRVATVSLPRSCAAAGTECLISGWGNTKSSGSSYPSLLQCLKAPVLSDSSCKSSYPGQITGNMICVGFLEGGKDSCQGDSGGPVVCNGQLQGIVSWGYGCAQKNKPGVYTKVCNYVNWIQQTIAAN
Format: biochemical
Method: HSA concentration in the pooled serum sample diluted twofold with ultrapure water was determined using BCG albumin assay kit on the 96-well plate format (cat. #MAK124-1KT, Sigma-Aldrich). The seven-point calibration series was prepared using HSA standard (5 to 50 mg/mL) in ultrapure water. The absorption spectrophotometry was measured at 620 nm wavelength. The pooled serum sample (10 µL), diluted 2000-fold using 50 mM AmBic with 5 mg/mL SDC (AmBic/SDC buffer) to HSA concentration of approx. 500 nM and transferred into a clean microcentrifuge tube. After adding SIL protein or peptide internal standard (10 µL), the sample was reduced (adding 1 µL of 200 mM DTT stock solution, 95 °C, 10 min), cooled down to ambient temperature, and cysteine residues were alkylated (adding 1 µL of 400 mM IAAstock solution, ambient temperature, 30 min in the dark). Trypsin was added to the sample in a 1:20 ratio (w/w enzyme to total protein content), and samples were incubated (37 °C, 16 h) in microcentrifuge tubes sealed with a paraffin film. The enzymatic proteolysis was quenched at different time points (0.5, 2, 4, 8, 16, and 24 h; n = 3) to optimize the incubation time. The proteolysis was quenched by adding 200 µL of 2% FA in water (pH < 3), and tryptic peptides were desalted using a mixed-mode SPE cartridge in a 96-well plate format (Oasis PRIME HLB, Waters, Milford, MA). Samples were loaded onto the SPE cartridge, washed (300 µL water with 2% FA, pH < 3), eluted (50% ACN; 2% FA in water, pH < 3), and the extract was dried in a vacuum concentrator centrifuge (Savant SPD121 P SpeedVac, Thermo Fisher). Samples were dissolved (10 µL) in 5% ACN with 0.1% FA in water before UHPLC-SRM analysis. […]
The enzymatic digestion efficiency severely affects the quantitative performance of a protein assay[10],[11]. […] Overnight trypsin digestion is routinely used for reproducible proteolytic yields as the peptide's stability and formation efficiency may vary[11]. Maximal trypsinization yields of some signature peptides are reached within two hours[10],[16], while other peptides require longer digestion time[30]. We optimized the trypsin digestion duration to ensure reproducible signature peptide yields needed for a quantitative protein assay. We studied the signature peptide formation from light HSA protein and each version of SIL-Ex peptides after 0.5, 2, 4, 8, 16, and 24 h of incubation. SRM peak areas of light and heavy signature peptides and determined HSA protein concentrations (nM) were plotted against incubation time (h), comparing the efficiency of light HSA proteolysis with SIL-Ex peptides (Figs. 4, S3 and S4). The formation of HSA signature peptides LVNE, SLHT, DDNP, YLYE, and QTAL was compared for SIL-TCT, SIL-ExC5, SIL-ExC3N3, and SIL-ExC5N5 peptides (Fig. 4). Besides, the formation of HSA signature peptides DLGE, LCTV, LVTD, TYET, and FQNA was compared for SIL-TCT and SIL-ExC5 peptides only (Fig. S4).

Substance	formation of signature peptide by trypsin digestion, rate or yield (in words)
RQIKKQTALVELVKHKPKA [SIL signature peptide extended with five amino acids at both C- and N-termini]	lower
LQHKDDNPNLPRLVR [SIL signature peptide extended with three amino acids at both C- and N-termini]	mimicking the slow digestion kinetics of light HSA protein
TFLKKYLYEIARRHPYF (also: stable isotope label, residues not given here) [SIL-ExC5N5 YLYEIAR, SIL signature peptide extended with five amino acids at both C- and N-termini]	lower
DDNPNLPRLVRPE	rapidly formed signature peptide DDNP
FLQHKDDNPNLPRLVRPE [SIL signature peptide extended with five amino acids at both C- and N-termini]	mimicking the slow digestion kinetics of light HSA protein
DDNPNLPRSAnYG [SIL-TCT DDNPNLPR]	rapidly formed signature peptide DDNP

Same assay, conditions: trypsin 1:20 w/w, 37 °C, AmBic/SDC buffer; quenched at 0.5, 2, 4, 8, 16, 24 h, n = 3; SRM peak area; Fig. S4

Substance	time to plateau of signature peptide formed from C-terminal extended SIL peptide (in words)
DLGEENFKSAnYG [SIL-TCT DLGEENFK]	within the initial two hours
LC*TVATLRSAnYG [SIL-TCT LCTVATLR]	within the initial two hours
LC*TVATLRETYGE	within the initial two hours
DLGEENFKALVLI	within the initial two hours
